The values below come from paper PMC6154613, “Investigation of the Anti-Leishmania (Leishmania) infantum Activity of Some Natural Sesquiterpene Lactones” (Molecules : A Journal of Synthetic Chemistry and Natural …, 2017).

Structures are written as SMILES.

The test system of data set [1] is L. (L.) infantum promastigotes. Briefly: Anti-promastigote activity, MTT viability assay. Format: cell-based, Leishmania (Leishmania) infantum. The settings on record: for IC50: Leishmania infantum, 48 h incubation, MTT, value (SD). The procedure:
(§1) L. (L.) infantum (MHOM/BR/1972/LD) promastigotes were maintained in M-199 medium supplemented with 10% heat-inactivated fetal bovine serum (FBS) (Gibco, Thermo Fisher Scientific, São Paulo, Brazil), 0.25% hemin (Sigma-Aldrich), and 5% human urine at 24 °C. Amastigotes were obtained from the spleen of previously infected hamsters by differential centrifugation. Macrophages were collected from the peritoneal cavity of BALB/c mice by washing with RPMI-1640 medium supplemented with 10% FBS, and were maintained at 37 °C in a 5% CO2-humidified incubator. Murine fibroblasts NCTC (clone L929 ATCC) were used to evaluate the cytotoxicity of the tested compounds. NCTC cells were maintained in M-199 medium supplemented with 10% FBS and 20 μg/mL gentamicin at 37 °C in a 5% CO2-humidified incubator.
Compounds were dissolved in DMSO and diluted in M-199 medium in 96-well microplates, with the highest concentration of 150 μM. Promastigotes of L. (L.) infantum in the late growth-phase were seeded at 1 × 10^6/well and incubated with the compounds for 48 h. The viability of cells was determined using the MTT assay. An internal control group was used with 0.5% DMSO (maximal concentration). Miltefosine was used as standard drug.
(§2) Data processing and statistical analyses was done with GraphPad Prism® 5.0 (GraphPad Software, Inc. La Jolla, CA, USA). For determination of antileishmanial activity and NCTC cytotoxicity, the IC50 and CC50 values were calculated after normalization using sigmoidal dose-response curves. The evaluation of statistical significance of multiple pairs was done with a Tukey's range test, which corrects for the increased probability of a type I error during multiple comparison.

Data set [2] is described as follows: Mammalian cytotoxicity, MTT assay. In kind it is cell-based, murine. The settings on record: mouse, NCTC murine fibroblasts, 48 h, MTT, value (SD); for CC50 at 48 h: NCTC clone L929 fibroblasts. The procedure:
as §1
(§3) NCTC cells were seeded at 6 × 10^4 in 96-well microplates and incubated with the compounds for 48 h. An internal control group was used with 0.5% DMSO (maximal concentration). The quantification of viable cells was assessed by the MTT assay. The selectivity index (SI) was determined using the following equation: SI = CC50 in NCTC cells / IC50 against amastigotes.
as §2
For orientation: Tetrazolium assays rely on reduction of a dye to a coloured formazan, in cell work by metabolically active cells.

Data set [3] deals with L. (L.) infantum intracellular amastigotes. Description: Activity against intracellular amastigotes in peritoneal macrophages, Giemsa staining and light microscopy. In kind it is cell-based, Leishmania (Leishmania) infantum. The settings on record: for IC50: Leishmania infantum, Peritoneal macrophage, intracellular amastigotes in murine peritoneal macrophages, 120 h, highest concentration 100 μM, value (SD). The procedure:
as §1
Murine peritoneal macrophages were collected from the peritoneal cavity of BALB/c mice, and the macrophages were seeded at 1 × 10^5/well for 24 h in a 16-well slide. Amastigotes were prepared (as described previously), seeded at a ratio 1:10 (macrophages:amastigotes) and kept at 37 °C in a 5% CO2-humidified incubator for 24 h. Test compounds were incubated to the highest concentration of 100 μM with infected macrophages for 120 h. Miltefosine was used as a standard drug. Subsequently, the cells were fixed with methanol, stained with Giemsa (Merck KGaA, Darmstadt, Germany), and observed using a light microscope. The parasite burden was determined by the number of infected macrophages out of 400 cells.
as §2

Data set [4] relates to Murine fibroblasts NCTC (clone L929 ATCC). Description: Mammalian cytotoxicity, MTT assay. In kind it is cell-based. The settings on record: NCTC cells. The procedure: as §1, §3, §2
In data set [5] the test system is L. (L.) infantum promastigotes plasma membrane. Description: Plasma membrane permeability, SYTOX Green. In kind it is cell-based, Leishmania (Leishmania) infantum. The settings on record: 3 and 6 μM, 60 min, compared with untreated parasites. The procedure: Late-growth-phase (non-stationary) promastigotes were incubated with the probe SYTOX Green (Molecular Probes Inc., Eugene, OR, USA), as previously described. […] 1 was added at 3 and 6 μM to 1 × 10^6 cells/well, at 24 °C. The fluorescence was measured every 20 min (0–80 min). At the end of the assay (80 min), 0.1% Triton X-100 was added to all wells to obtain the maximum permeabilization of parasites. Fluorescence intensity was determined using a fluorimetric microplate reader (FilterMax F5 Multi-Mode Microplate Reader-Molecular Devices, Sunnyvale, CA, USA) with excitation and emission wavelengths of 485 and 520 nm, respectively. The following internal controls were used during the evaluation: (i) the background fluorescence of the compound at the respective wavelengths; (ii) the possible interference of DMSO; (iii) untreated promastigotes; and (iv) medium without any cells. Samples were tested in duplicate.

Data set [6] deals with L. (L.) infantum promastigotes. Description: Mitochondrial membrane potential, rhodamine 123, flow cytometry. In kind it is cell-based, Leishmania (Leishmania) infantum. The settings on record: 6 μM, 1 h, compared with untreated parasites. The procedure: The Δψm and ROS content of promastigotes treated with compound 1 were determined using the fluorescence probes rhodamine 123 and H2DCFDA (Molecular Probes Inc., Eugene, OR, USA), respectively, and further evaluated by flow cytometry. […] The parasites were incubated in HANKS’ balanced salts solution (HBSS; Sigma-Aldrich, Carlsbad, CA, USA), supplemented with 10 mM D-Glucose, at 26 °C for 1 h. Afterwards the parasites were washed and stained with rhodamine 123 (0.3 μg/mL) or H2DCFDA (5 μM) for 15 min under absence of light. The washed parasites were resuspended in PBS and the fluorescence was measured in a Flow Cytometer Attune Nxt (ThermoFisher Scientific, Waltham, MA, USA) using the forward scatter (FSC, relative cell size) and the side scatter detectors (SSC, cell granulometry or internal complexity), FL1-A (detecting fluorescence emission 530 ± 15 nm), and Attune Nxt software. As control, untreated promastigotes (not stained with Rd123 or H2DCFDA) served to monitor the basal fluorescence. […] Samples were tested in duplicate. Two independent assays were performed.
Background: A flow cytometer gives signals particle by particle.

The test system of data set [7] is L. (L.) infantum promastigotes. Description: ROS production, H2DCFDA, flow cytometry. Format: cell-based, Leishmania (Leishmania) infantum. The procedure: The Δψm and ROS content of promastigotes treated with compound 1 were determined using the fluorescence probes rhodamine 123 and H2DCFDA (Molecular Probes Inc., Eugene, OR, USA), respectively, and further evaluated by flow cytometry. Briefly, 2 × 10^6 promastigotes/well cultured until the late growth-phase were treated with […] of 1 (corresponding to the IC99 value obtained with 1 × 10^6 parasites/well). The parasites were incubated in HANKS’ balanced salts solution (HBSS; Sigma-Aldrich, Carlsbad, CA, USA), supplemented with 10 mM D-Glucose, at 26 °C for 1 h. Afterwards the parasites were washed and stained with rhodamine 123 (0.3 μg/mL) or H2DCFDA (5 μM) for 15 min under absence of light. The washed parasites were resuspended in PBS and the fluorescence was measured in a Flow Cytometer Attune Nxt (ThermoFisher Scientific, Waltham, MA, USA) using the forward scatter (FSC, relative cell size) and the side scatter detectors (SSC, cell granulometry or internal complexity), FL1-A (detecting fluorescence emission 530 ± 15 nm), and Attune Nxt software. As control, untreated promastigotes (not stained with Rd123 or H2DCFDA) served to monitor the basal fluorescence. […] Samples were tested in duplicate. Two independent assays were performed.

For data set [8], the system named is peritoneal macrophages of BALB/c mice. Briefly: Nitric oxide production in macrophages, Griess assay. In kind it is cell-based, Mus musculus. The settings on record: 3 μM, 24 h, similar levels as LPS. The procedure: The NO production of macrophages treated with 1 was performed using the Griess assay. Briefly, 1 × 10^5/well peritoneal macrophages of BALB/c mice were seeded overnight in a 96-well plate. Fresh medium containing compound 1 at 3 µM (corresponding to the CC25 value obtained with NCTC cells) or 5 µg/mL LPS (positive control) were added and incubated for 24 h at 37 °C. Afterwards the NO content of each of the cultures’ supernatant was analysed using the Griess assay. The samples’ NO content was determined by means of a standard curve prepared with NaNO2 at concentrations from 0 to 400 μM.
(Nitrite, measured by Griess reagent, commonly stands in for NO production.)

In data set [9] the test system is L. (L.) infantum promastigotes. Briefly: Ultrastructural analysis by transmission electron microscopy. In kind it is cell-based, Leishmania (Leishmania) infantum. The settings on record: 0.5-4 h incubation; 1 μM or 120 μM. The procedure:
Ultrastructural studies were performed with promastigotes treated with compound 1 by TEM. L. (L.) infantum promastigotes in the late growth phase were washed and incubated with 120 μM of 1 (corresponding to the IC99 value obtained with 1 × 10^6 parasites/well) at 2 × 10^7/well in 200 μL M-199 medium. Compound incubation was performed for 0.5, 1, 2, 3, and 4 h under the previously described growth conditions. After centrifugation at 2800 rpm for 10 min, the parasites were fixed with 1 mL glutaraldehyde and the sample processing was performed according to Duarte et al.. The TEM imaging was performed on a JEOL 1011 transmission electron microscope (Peabody, MA, USA).

For a further data set, the system named is L. (L.) mexicana. Set-up: method as in PMID 18576826. The settings on record: cited from earlier work.
Data set [10] concerns axenic amastigotes (extracellular) of L. (L.) amazonensis. Set-up: method as in PMID 24913205. The settings on record: cited from earlier work.

With `C=C1C(=O)O[C@@H]2C[C@@]3(C)CCC[C@H](C)C3=C[C@H]12` [Alantolactone (5), Alantolactone], it took 9.94 µM to reach half-maximal inhibition in data set [1] (IC50). Further, in [2], it took 11 µM to reach half-maximal cytotoxicity (CC50 at 48 h).

As for `C=C1C(=O)O[C@@H]2[C@H]3C(C)=CC[C@@]34O[C@@]4(C)CC[C@@H]12` [Arglabin (3), Arglabin], the IC50 (commonly the concentration that inhibits the measured activity by half) came out at 30 µM in [1] and 7.33 µM in [3]. Moreover, the CC50 (usually the concentration giving 50% cytotoxicity) in data set [2] stood at 39.4 µM.

Take `C=C1C(=O)O[C@@H]2/C=C(/CO)C3=CC(=O)[C@@](C)(C[C@@H](OC(=O)/C(C)=C/C)[C@@H]12)O3` [Budlein A (7), Budlein A]: in data set [1], inhibition was half-maximal at 28 µM (IC50). For the same molecule, the CC50 in data set [2] was 9.05 µM.

Consider `C=C(CO)C(=O)O[C@H]1CC(=C)[C@@H]2C[C@H](O)C(=C)[C@@H]2[C@H]2OC(=O)C(=C)[C@@H]21` [Cynaropicrin (4), Cynaropicrin], for which the IC50 in data set [1] was 30.6 µM; in data set [3], 6.88 µM. Moreover, in data set [2], the 50% cytotoxic concentration (CC50) at 48 h is 33.5 µM.

For the molecule `C=C1C(=O)OC2CC(C)C3C=CC(=O)C3(C)C(OC(C)=O)C12` (centres unmarked) [Helenalin acetate (1), Helenalin acetate], the concentration for half-maximal inhibition (IC50) in data set [1] was 3.53 µM; in data set [3], 1.15 µM. In [1] (promastigotes, 1 × 10^6 parasites/well), this molecule displayed an IC99 value of 6 µM. Besides, the “infection of macrophages (light microscopy)” value is reported as “relatively high amastigote number” in data set [3] (0.33 µM, Figure S1c); “A large number of infected macrophages is visible” in [3] (1 µM, Figure S1b); “very few infected macrophages with each very few amastigotes” in [3] (3 µM, Figure S1a). Also, in data set [2], it took 8.12 µM to reach half-maximal cytotoxicity (CC50). Also, in data set [4], the CC25 value came to 3 µM. Moreover, the “SYTOX Green fluorescence (plasma membrane permeability)” value in data set [5] was “No significant increase of SYTOX Green fluorescence”. For the same molecule, the “decrease of Rd123 fluorescence (Δψm)” value in data set [6] is reported as 60%. The “ROS production (H2DCFDA)” value in data set [7] (compound 1, 1 h of treatment) is “no alteration of ROS”. The “production of NO” value in data set [8] is reported as “significantly increased the production of NO”. Besides, the “ultrastructural alterations (TEM)” value in [9] was “intense cytoplasmatic vacuolization, formation of autophagosomes, swelling of the mitochondrion, and chromatin decondensation”. In addition, in the data set on L. (L.) mexicana (L. (L.) mexicana promastigotes, long-term treatment), the “alteration of the plasma membrane” value was “no alteration of the plasma membrane”.

On to `C=C1C(=O)O[C@H]2C[C@@H](C)[C@@H]3C=CC(=O)[C@@]3(C)[C@H](O)[C@H]12` [Mexicanin I (2), Mexicanin I], for which the 50% inhibitory concentration (IC50) in [1] amounted to 4.89 µM; in data set [3], 1.73 µM. Further, in data set [2], the CC50 was determined as 9.2 µM. In addition, the “activity against L. (L.) mexicana” value with L. (L.) mexicana is “activity against L. (L.) mexicana at low concentrations”.

In data set [1], `CCCCCCCCCCCCCCCCOP(=O)([O-])OCC[N+](C)(C)C` [Miltefosine, reference compound] registered an IC50 of 16.7 µM.

Take `C=C1C(=O)O[C@H]2[C@H]1CC/C(C)=C/CC[C@@]1(C)O[C@@H]21` [Parthenolide (6), Parthenolide]: the IC50 turned out to be 59.1 µM in data set [1] and 89.2 µM in [3]. In addition, in [2], the midpoint of cytotoxicity, the CC50 at 48 h, lay at 58.2 µM. Also, the “effect on mitochondrial membrane potential” value in data set [10] was “mitochondrial depolarization”.

As to `C=C1C(=O)O[C@@H]2C[C@@H](C)[C@@H]3C=CC(=O)[C@@]3(C)[C@@H](O)[C@H]12` [helenalin, reference compound], in the data set on L. (L.) mexicana, the “activity against L. (L.) mexicana” value is “activity against L. (L.) mexicana at low concentrations”.

`CC[C@H]1/C=C/C=C/C[C@@H](C)[C@H](O)[C@@](C)(O)C(=O)[C@@H](C)[C@H](O)[C@@H](C)C(=O)[C@@H](C)[C@H](O)[C@@H](C)/C=C/C(=O)O[C@@H]2[C@H](C)[C@H](CC1)O[C@]1(CC[C@H](C)[C@H](C[C@@H](C)O)O1)[C@H]2C` [oligomycin, reference compound]: the “ROS production (H2DCFDA)” value in [7] (oligomycin 20 μM, positive control) is reported as “increased the ROS production over time”.
